# Read-outs that look alike come from different tables or passages of the source. Where a SMILES comes first, the peptide text is derived from it. [ ]: non-standard residue; d: D form. The star is where a group is joined. dPhe(4-Cl) = N[C@H](Cc1ccc(Cl)cc1)C(=O)O; d2Nal = N[C@H](Cc1ccc2ccccc2c1)C(=O)O; Palmitoyl = CCCCCCCCCCCCCCCC(=O)*; dCit = NC(=O)NCCC[C@@H](N)C(=O)O; d3Pal = N[C@H](Cc1cccnc1)C(=O)O
# Legend:
# [1] = molecular target: T1, GnRH receptor (GnRHR or LHRHR) (Homo sapiens, UniProt P30968); assay: GnRHR calcium flux assay (Discoverx), antagonistic; type: cell-based; settings: for IC50: LHRH-stimulated
# T1 sequence (P30968 1-328): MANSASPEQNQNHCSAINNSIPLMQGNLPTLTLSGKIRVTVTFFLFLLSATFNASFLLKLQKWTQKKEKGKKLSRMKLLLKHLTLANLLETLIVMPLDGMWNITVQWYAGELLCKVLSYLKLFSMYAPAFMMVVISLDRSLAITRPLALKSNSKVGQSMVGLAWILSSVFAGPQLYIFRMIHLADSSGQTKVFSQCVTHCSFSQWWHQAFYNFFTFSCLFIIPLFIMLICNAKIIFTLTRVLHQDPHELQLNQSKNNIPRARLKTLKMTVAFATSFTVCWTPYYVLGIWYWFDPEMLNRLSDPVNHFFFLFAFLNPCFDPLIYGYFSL
# Text: To study the bioactivities of conjugated and mutated peptides, we employed in vitro receptor-activation assays with cultured cells expressing recombinant melanocortin receptor 1 (MC1R), melanocortin receptor 4 (MC4R), CRH receptor 2 (CRHR2), PTH receptor 1 (PTHR1), or kappa opioid receptor (OPRK1). The agonistic activities toward MC1R, MC4R, CRHR2, PTHR1, and OPRK1 were assyed with an MC1R cAMP assay, an MC4R cAMP assay, a CRHR2 cAMP assay, a PTHR1 cAMP assay and an OPRK1 cAMP assay from Discoverx Inc. (Fremont, Calif.), respectively. The antagonistic activities toward bradykinin receptor 2 (BDKRB2) and GnRH receptor (GnRHR or LHRHR) were assayed with a BDKRB2 arrestin assay and a GnRHR calcium flux assay from Discoverx, respectively.
# For the analysis of calcium flux, cell lines were expanded from freezer stocks and seeded in a total volume of 20 μL into black-walled, clear-bottom, Poly-D-lysine coated 384-well microplates and incubated at 37 C for the appropriate time prior to testing. Assays were performed in 1× Dye Loading Buffer consisting of 1× Dye, 1× Additive A and 2.5 mM Probenecid in HBSS/20 mM Hepes. Cells were loaded with dye prior to testing. Media was aspirated from cells and replaced with 20 μL Dye Loading Buffer. Cells were incubated for 30-60 minutes at 37 C. For agonist determination, cells were incubated with sample to induce response. After dye loading, cells were removed from the incubator and 10 μL HBSS/20 mM Hepes was added. Vehicle was included in the buffer when performing agonist dose curves to define the EC80 for antagonist assays. Cells were incubated for 30 minutes at room temperature in the dark to equilibrate plate temperature. Intermediate dilution of sample stocks was performed to generate 4× sample in assay buffer. Compound agonist activity was measured on a FLIPR Tetra (MDS), and calcium mobilization was monitored for 2 minutes and 10 μL 4× sample in HBSS/20 mM Hepes was added to the cells 5 seconds into the assay.
# For antagonist determination, cells were pre-incubated with sample followed by agonist challenge at the EC80 concentration. Intermediate dilution of sample stocks was performed to generate 3× sample in assay buffer. After dye loading, cells were removed from the incubator and 10 μL 3× sample was added. Cells were incubated for 30 minutes at room temperature in the dark to equilibrate plate temperature. Vehicle concentration was 1%. Compound antagonistic activity was measured on a FLIPR Tetra (MDS), and calcium mobilization was monitored for 2 minutes and 10 μL EC80 agonist in HBSS/20 mM Hepes was added to the cells 5 seconds into the assay. The compound activity was analyzed using a CBIS data analysis suite (ChemInnovation, CA), and percentage activity is calculated using the following formula: % Activity=100%×(mean RFU of test sample−mean RFU of vehicle control)/(mean MAX RFU control ligand−mean RFU of vehicle control). For antagonist assays, percentage inhibition is calculated using the following formula: % Inhibition=100%×(1−(mean RFU of test sample−mean RFU of vehicle control)/(mean RFU of EC80 control−mean RFU of vehicle control)).
# [2] = Compound gel-forming ability in water (visual inspection, tube tapping assay, tilted tube assay); type: physicochemical; settings: for gel formation in aqueous solution, 11% / propensity to form gels, chimeric or mutated polypeptides, 11%: 11% w/w;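 as to all read-outs here: peptides mixed with de-ionized water at about 22-25 °C, judged after 20 min by eye plus tube tapping (10 taps, moves counted) and 90° tilt mobility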
# [3] = molecular target: melanocortin receptor 1 (MC1R) (Homo sapiens, UniProt Q01726); assay: MC1R cAMP assay (Discoverx), agonistic; type: cell-based
# melanocortin receptor 1 (MC1R), sequence (Q01726 whole entry): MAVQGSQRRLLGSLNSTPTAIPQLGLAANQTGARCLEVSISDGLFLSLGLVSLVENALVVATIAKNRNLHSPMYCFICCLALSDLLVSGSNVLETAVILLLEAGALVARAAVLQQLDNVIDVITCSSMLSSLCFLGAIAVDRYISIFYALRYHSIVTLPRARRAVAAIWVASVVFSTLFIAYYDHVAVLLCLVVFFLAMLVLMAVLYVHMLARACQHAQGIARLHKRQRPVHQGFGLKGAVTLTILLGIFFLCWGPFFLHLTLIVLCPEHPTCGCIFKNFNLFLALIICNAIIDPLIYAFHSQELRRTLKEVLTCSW
# Method: The agonistic activities toward MC1R, MC4R, CRHR2, PTHR1, and OPRK1 were assyed with an MC1R cAMP assay, an MC4R cAMP assay, a CRHR2 cAMP assay, a PTHR1 cAMP assay and an OPRK1 cAMP assay from Discoverx Inc. (Fremont, Calif.), respectively. The antagonistic activities toward bradykinin receptor 2 (BDKRB2) and GnRH receptor (GnRHR or LHRHR) were assayed with a BDKRB2 arrestin assay and a GnRHR calcium flux assay from Discoverx, respectively.
# For the analysis of Gs-coupled cAMP production, cAMP Hunter cell lines were expanded from freezer stocks, and cells were seeded in a total volume of 20 μL into white walled, 384-well microplates and incubated at 37 C for the appropriate time prior to testing. The cAMP modulation was determined using the DiscoverX HitHunter cAMP XS+ assay. For agonistic activity determination, cells were incubated with sample to induce response. Media was aspirated from cells and replaced with 15 μL 2:1 HBSS/10 mM Hepes: cAMP XS+ Ab reagent. Intermediate dilution of sample stocks was performed to generate 4× sample in assay buffer, and 5 μL of 4× sample was added to cells and incubated at 37 C or room temperature for 30 or 60 minutes. Vehicle concentration was 1%. The compound activity was analyzed using a CBIS data analysis suite (ChemInnovation, CA). For Gs-coupled agonistic assays, percentage activity is calculated using the following formula: % Activity=100%×(mean RLU of test sample−mean RLU of vehicle control)/(mean RLU of MAX control−mean RLU of vehicle control).
Compound,Max Activity % of positive control [1],IC50 [1] [nM],"gel formation in aqueous solution, 11% ([2]; Table 3)","propensity to form gels, chimeric or mutated polypeptides, 11% ([2]; Table 5)",EC50 [3],Max Activity % of positive control [3],other results
"CC(=O)N[C@H](Cc1ccc2ccccc2c1)C(=O)N[C@H](Cc1ccc(Cl)cc1)C(=O)N[C@H](Cc1cccnc1)C(=O)N[C@@H](CO)C(=O)N[C@@H](Cc1ccc(O)cc1)C(=O)N[C@H](CCCNC(N)=O)C(=O)N[C@@H](CC(C)C)C(=O)N[C@@H](CCCNC(=N)N)C(=O)N1CCC[C@H]1C(=O)N[C@H](C)C(N)=O [Cetrorelix, reference compound] (Ac-[d2Nal][dPhe(4-Cl)][d3Pal]SY[dCit]LRP[dA]-NH2)",91.4 % of positive control,0.08,,,,,
CCCCCCCCCCCCCCCC(=O)N[C@@H](CCCCN)C(=O)N[C@H](C(=O)N[C@@H](CCC(N)=O)C(=O)N[C@@H](CCCCN)C(=O)N[C@@H](CC(C)C)C(=O)N[C@@H](CO)C(=O)N[C@@H](C)C(=O)N1CCC[C@H]1C(=O)N[C@H](C(=O)N[C@@H](CC(=O)O)C(=O)N1CCC[C@H]1C(=O)N[C@@H](CO)C(=O)N[C@@H](CO)C(=O)N1CCC[C@H]1C(=O)N[C@@H](Cc1c[nH]cn1)C(=O)N[C@@H](CO)C(=O)N[C@@H](Cc1ccc(O)cc1)C(=O)NCCOCCOCC(=O)N[C@H](Cc1ccc2ccccc2c1)C(=O)N[C@H](Cc1ccc(Cl)cc1)C(=O)N[C@H](Cc1cccnc1)C(=O)N[C@@H](CO)C(=O)N[C@@H](Cc1ccc(O)cc1)C(=O)N[C@H](CCCNC(N)=O)C(=O)N[C@@H](CC(C)C)C(=O)N[C@@H](CCCNC(=N)N)C(=O)N1CCC[C@H]1C(=O)N[C@H](C)C(N)=O)C(C)C)C(C)C [SEQ ID NO:202],135 % of positive control,,SS (SS for semisolid gel),SS (An ability to form semisolid gel is represented by an SS),,,"gel formation at 6% w/w ([2]; 6% w/w in water): semisolid gel; gel formation at 11% w/w ([2]; 11% w/w in water): semisolid gel; gel formation in aqueous solution, 6% ([2]; Table 3, 6% w/w): SS (SS for semisolid gel); propensity to form gels, chimeric or mutated polypeptides, 3% ([2]; Table 5, 3% w/w): AS/IS; propensity to form gels, chimeric or mutated polypeptides, 6% ([2]; Table 5, 6% w/w): SS (An ability to form semisolid gel is represented by an SS)"
"CCCCCCCCCCCCCCCC(=O)N[C@@H](Cc1c[nH]cn1)C(=O)N[C@@H](CO)C(=O)N[C@@H](Cc1ccc(O)cc1)C(=O)N[C@H](Cc1ccc2ccccc2c1)C(=O)N[C@H](Cc1ccc(Cl)cc1)C(=O)N[C@H](Cc1cccnc1)C(=O)N[C@@H](CO)C(=O)N[C@@H](Cc1ccc(O)cc1)C(=O)N[C@H](CCCNC(N)=O)C(=O)N[C@@H](CC(C)C)C(=O)N[C@@H](CCCNC(=N)N)C(=O)N1CCC[C@H]1C(=O)N[C@H](C)C(N)=O [SEQ ID NO:203, Pal-HSY-(D-Nal)-(D-Cpa)-(D-Pal)-SY-(D-Cit)-LRP-(D-Ala)-NH2] (Palmitoyl-HSY[d2Nal][dPhe(4-Cl)][d3Pal]SY[dCit]LRP[dA]-NH2)",109 % of positive control,< 0.51,,,,,
"CCCCCCCCCCCCCCCC(=O)N[C@@H](Cc1c[nH]cn1)C(=O)N[C@@H](CO)C(=O)N[C@@H](Cc1ccc(O)cc1)C(=O)N[C@@H](CO)C(=O)N[C@@H](CCCC)C(=O)N[C@@H](CCC(=O)O)C(=O)N[C@@H](Cc1c[nH]cn1)C(=O)N[C@H](Cc1ccccc1)C(=O)N[C@@H](CCCNC(=N)N)C(=O)N[C@@H](Cc1c[nH]c2ccccc12)C(=O)NCC(=O)N[C@@H](CCCCN)C(=O)N1CCC[C@H]1C(=O)N[C@H](C(N)=O)C(C)C [SEQ ID NO:224, Pal-HSYS-Nle-EH-(D-Phe)-RWGKPV-NH2]",,,,,subnanomolar,120 % of positive control,EC50 ([3]; read-out: EC50): < 0.05 nM
CCCCCCCCCCCCCCCC(=O)N[C@@H](Cc1c[nH]cn1)C(=O)N[C@@H](CO)C(=O)N[C@@H](Cc1ccc(O)cc1)C(=O)N[C@@H](CO)C(=O)N[C@@H](CCSC)C(=O)N[C@@H](CCC(=O)O)C(=O)N[C@@H](Cc1c[nH]cn1)C(=O)N[C@@H](Cc1ccccc1)C(=O)N[C@@H](CCCNC(=N)N)C(=O)N[C@@H](Cc1c[nH]c2ccccc12)C(=O)NCC(=O)N[C@@H](CCCCN)C(=O)N1CCC[C@H]1C(=O)N[C@H](C(=O)NCC(=O)N[C@@H](CCCCN)C(=O)N[C@@H](CCCCN)C(=O)N[C@@H](CCCNC(=N)N)C(=O)N[C@@H](CCCNC(=N)N)C(=O)N1CCC[C@H]1C(=O)N[C@H](C(=O)N[C@@H](CCCCN)C(=O)N[C@H](C(=O)N[C@@H](Cc1ccc(O)cc1)C(=O)N1CCC[C@H]1C(=O)O)C(C)C)C(C)C)C(C)C [SEQ ID NO:226],,,SS (SS for semisolid gel),SS (An ability to form semisolid gel is represented by an SS),nanomolar,115 % of positive control,

# — US20200405868A1, “GEL-FORMING POLYPEPTIDES” (priority 2018, published 2020)
